{"source": "paper PMC6747274", "about": "“Multifunctional Peptides from Spanish Dry-Cured Pork Ham: Endothelial Responses and Molecular Modeling Studies” (International Journal of Molecular Sciences, 2019)", "key": {"[1]": {"test_system": "VCAM-1 surface expression, EA.hy926 cells", "experiment": "VCAM-1 surface expression by flow cytometry", "format": "cell-based, human", "details": "100 ng/mL TNF-α alone", "description": "(§1) EA.hy926 cells, the hybrid human umbilical vein endothelial cell line, were obtained from the American Type Culture Collection (ATCC® CRL2922™, Rockville, MD, USA). Cells were cultured in high glucose Dulbecco’s Modified Eagle’s Medium (DMEM), containing 10% heat-inactivated fetal bovine serum (FBS, Biowest, Riverside, CA, USA) and 50 U/mL of penicillin and 50 µg/mL streptomycin (Sigma Aldrich Chemical Co., Saint Louis, MO, USA). Cells were grown in 5% CO2 in a humidified air incubator at 37 °C. Subculture was performed when 90% confluence was reached.\n(§2) EA.hy926 were seeded in six-well plates at 0.25 × 10^6 cells/well in DMEM supplemented with 5% FBS. Cells were treated with 300 µM of each peptide for 16 h. Then, 100 ng/mL TNF-α or 300 µM H2O2 were added for an additional 6 h or 24 h, respectively.\nTo measure adhesion molecule content in human endothelial cells by flow cytometry, the cell monolayer was detached and fixed before immunofluorescence labelling. […] Markers were set according to the negative controls to quantify the percentage of positively stained cells. Mean Fluorescence Intensity (MFI) was calculated for each antigen (MFI of total stained cells-MFI of negative control cells)."}, "[2]": {"test_system": "VCAM-1 mRNA, EA.hy926 cells", "experiment": "VCAM-1 mRNA expression by RT-PCR in EA.hy926 cells", "format": "cell-based, human", "details": "100 ng/mL TNF-α alone, 6 h; p < 0.05", "description": "as §1, §2\n(§3) Total RNA was extracted from EA.hy926 cells using 300 µL Trisure™ (Bioline, Taunton, MA, USA) reagent and Direct-zol™ RNA MiniPrep (Zymo Research Irvine, Irvine, CA, USA) according to the manufacturer’s protocol. Total RNA was reverse-transcribed into complementary DNA (Sensifast cDNATM Synthesis kit, Bioline, Taunton, MA, USA). The mRNA levels of the target genes were quantified by RT-PCR using SensiFAST SYBER Hi-ROX Kit (Bioline, Taunton, MA, USA) with StepOnePlus Real-Time PCR System (Applied Biosystems, Foster City, CA, USA). Briefly, 5 µL of 1:5 diluted cDNA was added to the qPCR reaction containing 10 μL 2X SensiFAST Mix and 400 nM of each primer in a total volume of 20 μL.\n(§4) Specific and validated primers for human glyceraldehyde-3-phosphate dehydrogenase (GADPH), intercellular adhesion marker-1 (ICAM-1), vascular cell adhesion marker-1 (VCAM-1), endothelial nitric oxide synthase (eNOS), interleukin 6 (IL-6), catalase, SOD (Super Oxide Dismutase), NADPH (Nicotinamide Adenine Dinucleotide Phosphate oxidase) and Bax (proapoptosis regulator) genes were used (Sigma-Aldrich Chemical Co., Saint Louis, MO, USA). […]\n(§5) The relative quantification of gene expression was determined by the comparative fold change […] method. […]"}, "[3]": {"test_system": "ICAM-1 mRNA, EA.hy926 cells", "experiment": "ICAM-1 mRNA expression by RT-PCR in EA.hy926 cells", "format": "cell-based, human", "details": "100 ng/mL TNF-α alone, 6 h; p < 0.05", "description": "as §1, §2\n(§6) Total RNA was extracted from EA.hy926 cells using 300 µL Trisure™ (Bioline, Taunton, MA, USA) reagent and Direct-zol™ RNA MiniPrep (Zymo Research Irvine, Irvine, CA, USA) according to the manufacturer’s protocol. […] The mRNA levels of the target genes were quantified by RT-PCR using SensiFAST SYBER Hi-ROX Kit (Bioline, Taunton, MA, USA) with StepOnePlus Real-Time PCR System (Applied Biosystems, Foster City, CA, USA). […]\nas §5"}, "[4]": {"test_system": "ICAM-1 surface expression, EA.hy926 cells", "experiment": "ICAM-1 surface expression by flow cytometry (MFI)", "format": "cell-based, human", "description": "as §1, §2\nTo measure adhesion molecule content in human endothelial cells by flow cytometry, the cell monolayer was detached and fixed before immunofluorescence labelling. The following antibodies were used per sample: 20 µL anti-ICAM-1/CD54-phycoerythrin (PE) (clone HA58, BD Biosciences, Franklin Lakes, NJ, USA) and 5 µL anti-VCAM-1/CD106-PerCP-Cy5.5 (clone 51–10C9; BD Biosciences, San Jose, CA, USA), according to the manufacturer’s protocol. Stained cells (10,000 events) were examined by flow cytometry (FACS Calibur, Becton Dickinson, Mountain View, CA, USA) in a simultaneous two-color analysis with FL2 (PE) and FL3 (PerCP-Cy5.5) channels. Markers were set according to the negative controls to quantify the percentage of positively stained cells. Mean Fluorescence Intensity (MFI) was calculated for each antigen (MFI of total stained cells-MFI of negative control cells)."}, "[5]": {"test_system": "eNOS mRNA, EA.hy926 cells", "experiment": "eNOS mRNA expression by RT-PCR in EA.hy926 cells", "format": "cell-based, human", "description": "as §1, §2, §3, §4, §5"}, "[6]": {"test_system": "ICAM-1 protein, EA.hy926 cells", "experiment": "Intracellular ICAM-1 protein by western blot", "format": "cell-based, human", "details": "100 ng/mL TNF-α alone", "description": "as §2\nSupplementary Material and Methods\n1.1. Human ACE Inhibitio n Assa y\nBefore transfection, the endothelial ACE expressio n level was very low and the p roduct of the enzymatic reaction undete ctable, and so a recombinant construct e ncodi ng the Myc-Tag fused to the ACE ge ne was used. T o overexpress the ACE enzyme, EA.hy926 cel ls were seeded in 24-well plates at 80,000 cells/well and transiently transfec ted with a human Ace ORF mammali an expression plasmid (Sinobiological, Beijing, China) using trans-it X2 reagent ( Myrus®, Madi son, […]\nWisconsin, USA). […] The effi ciency of […]\ntransfecti on was checked by immunofluorescence. Briefly, 48 h post-transfection, cells were fixed with 4% paraformaldehyd e in culture medi um for 15 min at room temperatur e, blocked with 1% bo vine seru m albumin (BSA) in phosph ate buffer for 30 min followed by 0.2% sapo nin for 30 min to permeabil ize the membr ane. […]\nThe mRNA level s of the target genes (ICAM-1, VCAM-1, IL-6, eNOS, SOD, catal ase, NADPH, BAX) were quantified by RT-PCR using Se nsiFAST SYBER Hi-ROX Kit (Bioline, Taunton, USA) with StepOnePlus Real-Time PCR Sy stem (Appl ied Bi osystems, Foster City, CA, USA) using speci fi c and vali dated pri mers (Si gma-Al drich Chemical Co., Saint Louis, MO, USA).\nThe tetr azolium assay (MTT) was used to estimate the cel l viability in the presence of synthetic pepti des (up to 600 µM) and 300 µM H2O2. […] The formazan crystals formed in the intact cel ls were dissol ved in 200 µL dimethyl sulfoxide (DMSO) for 30 min and the absorbance was measured in a micro plate reader at 570 nm and 620 nm of reference. Results wer e calculated as cel l viability (%) = average optic density (OD) of wells/ave rage OD of control wells. […]"}, "[7]": {"test_system": "IL-6 mRNA, EA.hy926 cells", "experiment": "IL-6 mRNA expression by RT-PCR in EA.hy926 cells", "format": "cell-based, human", "description": "as §1, §2, §6, §5"}, "BAX mRNA, EA.hy926 cells": {"test_system": "BAX mRNA, EA.hy926 cells", "experiment": "BAX mRNA expression by RT-PCR in oxidative conditions", "format": "cell-based, human", "details": "300 µM H2O2 alone, 24 h; p = 0.02", "description": "as §2\nas §3, with “μL. […]” for “μL.”\nas §5"}, "EA.hy926 cells": {"test_system": "EA.hy926 cells", "experiment": "Annexin V / propidium iodide apoptosis and necrosis by FACS", "format": "cell-based, human", "details": "300 µM H2O2 alone, three independent experiments, mean ± SD", "description": "as §2\nApoScreen Annexin V Apoptosis Kit-FITC (Southern Biotech, Birmingham, AL, USA) was used to detect the apoptosis rate. After the co-incubation of synthetic peptides and 300 µM H2O2, 0.4 × 10^6 cells were detached and washed in cold PBS, then resuspended in 100 µL Annexin V binding buffer and treated following the manufacturer’s protocol. Annexin V-fluorescein isothiocyanate (FITC) binding was assessed in FL1 channel simultaneously with propidium iodide (FL2 channel). This test discriminates among intact cells (FITC−/PI−), apoptotic cells (FITC+/PI−), and necrotic cells (FITC+/PI+). Assays were performed in triplicate (Table S1)."}, "[8]": {"test_system": "protein carbonylation, EA.hy926 cells", "experiment": "Protein carbonylation (Oxyblot immunoblotting)", "format": "cell-based, human", "details": "300 µM H2O2 alone, 30 min", "description": "Protein carbonyl content is the most general and well-used biomarker of severe oxidative protein damage. Cel ls were treated with synthetic pepti des for 16 h before adding 300 µM H2O2 and leaving for additional 30 min. Protein carbonyl groups level s wer e determined by immuno blotting using the Oxyblot Protein Oxidation Detecti on Kit (Millipore Merck, Temecul a, CA, USA) according to the manufacturer’s protocol. PVDF membranes were blocked with 1% BSA in PBS–0.05% Tween 20 (v/v) (PBS-T) for 1 h at room temperature. The blots were incubated overnight at 20 °C with the polyclonal antibody. Subsequently, blots were washed (3–5 times) with PBS-T and incubated with goat anti-rabbit IgG/HRP c onjugate (1∶300 dilution in PBS/BSA) (Sigma-Al drich Chemical Co., Saint Louis, MO, USA) for 1 h at room temperature. […] In this condition, no signal was detected in the PVDF membr anes (data no t shown). The e mitted chemiluminescent signals wer e detected using a di gital imaging system (Im ageQuant LAS500, Thermo FisherScientific Inc., Rockford, IL, USA) after automatic exposition time. Quantitation of the densitometry plots for chemiluminescence detecti on was c arried out using ImageJ software for the analysis of 1D gels. Peaks were drawn from the di stinct western-blot bands, the area were calculated and normalized to co ntrol conditions."}, "human ACE": {"molecular_target": "human ACE (Homo sapiens, UniProt P12821)", "sequence (P12821 30-1306)": "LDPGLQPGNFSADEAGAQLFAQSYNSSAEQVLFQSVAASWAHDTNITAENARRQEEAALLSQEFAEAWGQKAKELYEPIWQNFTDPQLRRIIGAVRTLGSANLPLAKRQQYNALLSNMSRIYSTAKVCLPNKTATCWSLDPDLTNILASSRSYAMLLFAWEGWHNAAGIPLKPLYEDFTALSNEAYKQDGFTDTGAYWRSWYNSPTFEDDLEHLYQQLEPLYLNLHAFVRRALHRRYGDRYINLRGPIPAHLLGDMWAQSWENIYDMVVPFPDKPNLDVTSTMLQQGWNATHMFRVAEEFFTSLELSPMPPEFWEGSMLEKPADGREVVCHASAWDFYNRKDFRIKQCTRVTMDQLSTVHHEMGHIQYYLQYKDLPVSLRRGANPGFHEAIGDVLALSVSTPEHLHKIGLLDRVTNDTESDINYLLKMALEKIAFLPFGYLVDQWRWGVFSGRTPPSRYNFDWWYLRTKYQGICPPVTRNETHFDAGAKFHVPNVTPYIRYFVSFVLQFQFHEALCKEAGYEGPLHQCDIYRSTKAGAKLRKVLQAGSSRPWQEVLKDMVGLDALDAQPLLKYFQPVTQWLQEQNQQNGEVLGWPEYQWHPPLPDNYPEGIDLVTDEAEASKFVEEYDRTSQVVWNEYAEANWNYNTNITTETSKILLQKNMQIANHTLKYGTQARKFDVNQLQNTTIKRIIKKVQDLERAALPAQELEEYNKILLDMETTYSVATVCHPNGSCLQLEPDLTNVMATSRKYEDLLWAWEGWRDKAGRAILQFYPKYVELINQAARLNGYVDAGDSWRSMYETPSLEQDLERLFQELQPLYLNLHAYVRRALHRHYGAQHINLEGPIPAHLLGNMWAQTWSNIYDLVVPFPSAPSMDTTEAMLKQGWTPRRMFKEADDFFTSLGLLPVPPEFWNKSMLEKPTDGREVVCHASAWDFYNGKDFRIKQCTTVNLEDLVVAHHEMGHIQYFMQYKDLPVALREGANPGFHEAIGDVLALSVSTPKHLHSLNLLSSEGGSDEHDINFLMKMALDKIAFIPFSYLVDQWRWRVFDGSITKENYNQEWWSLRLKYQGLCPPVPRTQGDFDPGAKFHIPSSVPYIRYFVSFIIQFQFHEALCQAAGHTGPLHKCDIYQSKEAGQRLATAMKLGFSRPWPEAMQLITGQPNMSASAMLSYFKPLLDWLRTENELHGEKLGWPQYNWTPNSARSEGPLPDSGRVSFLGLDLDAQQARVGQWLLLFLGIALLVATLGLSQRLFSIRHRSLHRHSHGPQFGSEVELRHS", "experiment": "Human ACE inhibition assay (lysate of ACE-transfected EA.hy926 cells, HHL substrate, HPLC)"}, "[9]": {"test_system": "inflammatory markers (IL-6 and eNOS)", "details": "spontaneous hypertensive rats, DNA microarray; cited from earlier work", "excerpt": "In fact, multifunctional peptides interfere with more than one biological pathway, such as NO production, oxidative stress, and inflammation. […] Our interest in the use of an in vitro model of endothelial dysfunction was to further understand the reg ..."}, "[10]": {"details": "100 ng/mL TNF-α alone, 6 h, p < 0.05"}}, "note": "Values joined by “and” are separate entries in the source; they are usually repeats but may differ in a detail not shown here. Identical values can stand only once. “Also recorded” adds a separate entry of the source. Where no end group is shown, it is not given here.", "data": [{"compound": "TNF-α", "values": [{"measurement": "VCAM-1 surface staining after TNF-α", "setting": "[1]", "value": "undetected; also recorded: hardly detectable"}, {"measurement": "VCAM-1 mRNA expression vs control", "setting": "[2]", "value": "increased"}, {"measurement": "ICAM-1 mRNA expression vs control", "setting": "[3]", "value": "increased"}, {"measurement": "ICAM-1 MFI", "setting": "[4]; 100 ng/mL TNF-α alone, six independent experiments, mean ± SD, p = 0.0003 vs control (71.36 ± 8.31)", "value": "1271.91 ± 158.54"}, {"measurement": "ICAM-1 MFI on cell surface (in words)", "setting": "[4]; TNF-α alone vs control, p = 0.0003", "value": "increase"}, {"measurement": "eNOS mRNA expression vs control", "setting": "[5]; [10]", "value": "decreased"}, {"measurement": "expression of 82–85 kDa protein corresponding to ICAM-1 (western blot)", "setting": "[6]", "value": "induced"}, {"measurement": "IL-6 mRNA expression vs control", "setting": "[7]; [10]", "value": "increased"}]}, {"compound": "OO", "note": "[H2O2, reference compound]", "values": [{"measurement": "BAX expression increase", "setting": "BAX mRNA, EA.hy926 cells", "value": 1.5, "unit": "fold"}, {"measurement": "Necrosis (AnV+/PI+), % cells", "setting": "EA.hy926 cells; p = 0.01 vs control (1.45 ± 0.24)", "value": "18.56 ± 3.38% and 18%"}, {"measurement": "Apoptosis (AnV+/PI-), % cells", "setting": "EA.hy926 cells; p = 0.03 vs control (0.90 ± 0.36)", "value": "10.37 ± 1.33% and 10%"}, {"measurement": "protein carbonylation level", "setting": "[8]", "value": "significantly increased"}, {"measurement": "eNOS mRNA expression increase", "setting": "[5]; 300 µM H2O2 alone, 24 h, p = 0.01", "value": 3.3, "unit": "fold"}, {"measurement": "IL-6 mRNA expression upregulation", "setting": "[7]; 300 µM H2O2 alone, 24 h, p = 0.001", "value": 1.84, "unit": "fold"}]}, {"compound": "KPGRP [BP3]", "values": [{"measurement": "IC50", "setting": "human ACE", "value": "486 ± 43.5", "unit": "µM"}]}, {"compound": "Ile-Pro-Pro [IPP, milk-derived peptide]", "values": [{"measurement": "inflammatory markers (IL-6 and eNOS)", "setting": "[9]", "value": "decrease in inflammatory markers (IL-6 and eNOS)"}]}, {"compound": "KPVAAP [BP1]", "values": [{"measurement": "IC50", "setting": "human ACE", "value": "59.2 ± 3.8", "unit": "µM"}]}, {"compound": "Val-Pro-Pro [VPP, milk-derived peptide]", "values": [{"measurement": "inflammatory markers (IL-6 and eNOS)", "setting": "[9]", "value": "decrease in inflammatory markers (IL-6 and eNOS)"}]}]}
